Assay results from publication PMC8878748, “Broad-Spectrum Antiviral Activity of the Amphibian Antimicrobial Peptide Temporin L and Its Analogs” (International Journal of Molecular Sciences, 2022).
Read-outs that look alike come from different tables or passages of the source. Where a SMILES comes first, the peptide text is derived from it. [ ]: non-standard residue; d: D form. The star is where a group is joined. X1 = CC(C)CCC[C@@H](C)[C@H]1CC[C@H]2[C@@H]3CC=C4C[C@@H](OC(=O)CCOCCOCCOCCOCCNC(=O)C*)CC[C@]4(C)[C@H]3CC[C@]12C; Undecanoyl = CCCCCCCCCCC(=O)*; Aic = NC1(C(=O)O)Cc2ccccc2C1; Nle = CCCC[C@H](N)C(=O)O

How the values were obtained:
[1] = system: peripheral blood mononuclear cells (PBMCs); assay: MTT cytotoxicity assay on PBMCs; assay type: cell-based, human; conditions: 2 h and 24 h
Description: Vero cells (ATCC CCL-81, Manassas, VA, USA) and Vero/hSLAM cells (ECACC 04091501, Porton Down, UK) and Madin Darby canine kidney (MDCK, CCL-34) were grown in Dulbecco’s Modified Eagle Medium (DMEM) with 4.5 g/L glucose (Microtech, Naples, Italy) supplemented with 100 IU/mL penicillin and 100 μg/mL streptomycin (Himedia, Naples, Italy) and 10% Fetal Bovine Serum (Microtech). PBMCs were isolated as follow. Buffy coats acquired from a healthy anonymous donor were used to isolate PBMCs on a Ficoll-Hypaque density gradient (Sigma-Aldrich) according to standard procedures. Then, PBMCs were grown (5 × 10^6/mL) in RPMI 1640 (Microtech) supplemented with 10% FBS, 60 IU/mL of interleukin-2 (IL-2, Sigma-Aldrich) and 2 µg/mL of phytohemagglutinin (PHA) (Sigma-Aldrich).
Vero cells were seeded in 96-well microtiter tissue culture plates (5 × 10^3 cells /well) and incubated for 24 h at 37 °C in 5% CO2. PBMCs were isolated and then cultured at a concentration of 1 × 10^5 cells/well.
The cytotoxicity for both cell types was evaluated by the MTT (Sigma-Aldrich) assay based on the reduction of the yellowish MTT to the insoluble and dark blue formazan by viable and metabolically active cells. Temporin-based peptides were tested at […] concentrations (0.1, 1, 6.25, 12.5, 25, 50 and 100 µM) after 2 and 24 h. At the end of incubation, 100 μL of an MTT solution (5 mg/mL) was added in each well and incubated for 3 h at 37 °C. The supernatant was discarded and 100 μL of DMSO 100% (Sigma Aldrich) was added (to dissolve the formazan salts) for 10 min with vigorous agitation at room temperature. Cytotoxicity was evaluated by spectrophotometric reading at 540 nm. The viability of Vero cells in each well was presented as a percentage of control cells. All experiments were performed in triplicate, and the means standard deviations are reported. Nonlinear regression analysis was performed using GraphPad Prism software (GraphPad Software, San Diego, CA, USA) to determine the CC50.

HCoV-229E = conditions: 2 h
human erythrocytes = conditions: for hemolytic activity: at their antiviral concentrations
Description: The hemolytic activity of the peptides was determined using fresh human erythrocytes from healthy donors as reported previously. Briefly, the blood was centrifuged, and the erythrocytes were washed three times with 0.9% NaCl. Peptides were added to the erythrocyte suspension (5% v/v), at a final concentration ranging from 0.1 to 100 μM in a final volume of 100 μL. The samples were incubated with agitation at 37 °C for 60 min. The release of hemoglobin was monitored by measuring the absorbance (Abs) of the supernatant at 540 nm. The control for zero hemolysis (blank) consisted of erythrocytes suspended in the presence of peptide solvent. Hypotonically lysed erythrocytes were used as a standard for 100% hemolysis. The percentage of hemolysis was calculated using the equation: % hemolysis = [(Abssample − Absblank)/(Abstotal lysis − Absblank)] × 100

[2] = system: influenza virus (subtype H1N1); conditions: influenza virus (subtype, 2 h)
MeV = conditions: for IC50 / IC90: 2 h
[3] = MTT cytotoxicity assay on Vero cells; assay type: cell-based; conditions: MTT, calculated after 2 h of peptide treatment
poliovirus Sb-1 = assay type: cell-based
[4] = cited from earlier work
CV-B3 = assay: Plaque reduction assay, CV-B3; assay type: cell-based, Enterovirus B (coxsackievirus B3, ATCC VR-688); conditions: four experimental settings
HCoV-OC43 = conditions: 2 h
HPIV-3 = conditions: 2 h
Vero cells = assay: MTT cytotoxicity assay on Vero cells; assay type: cell-based; conditions: 2 h of treatment, concentration above 50 μM
HSV-1 = system: HSV-1; set-up: method as in PMID 29483113; conditions: preincubation of HSV-1 purified virions with 20 µg/mL; cited from earlier work

Compound | cytotoxicity on PBMCs [1] | IC50 (HCoV-229E) [µM] | IC90 (HCoV-229E) [µM] | IC50 [2] [µM] | IC90 [2] [µM] | IC50 (MeV) [µM] | IC90 (MeV) [µM] | CC50 [3] [µM] | %Helix in DPC ([4]; Table 2) [%] | also measured
CC[C@H](C)[C@H](NC(=O)[C@H](CCCNC(=N)N)NC(=O)CNC(=O)[C@@H](CC(C)C)NC(=O)[C@H](Cc1ccccc1)NC(=O)[C@H](CCCCN)NC(=O)[C@H](CO)NC(=O)[C@H](Cc1ccccc1)NC(=O)[C@H](Cc1c[nH]c2ccccc12)NC(=O)[C@@H]1CCCN1C(=O)[C@@H](NC(=O)[C@@H](N)Cc1ccccc1)C(C)C)C(=O)N[C@@H](CC(C)C)C(N)=O [TL1, H-Phe-Val-Pro-Trp-Phe-Ser-Lys-Phe-DLeu-Gly-Arg-Ile-Leu-NH2] (H-FVPWFSKF[dL]GRIL-NH2) | minor damage | 7.66 | 30.1 | 6.74 | 12.5 | > 50 | > 50 | 42.2 | 42 | hemolytic activity (human erythrocytes): practically devoid of hemolytic activity; reduction of infectivity, MeV (MeV; cell pretreatment assay, peptide 25 μM): over 40%; effect on MeV in the virus pretreatment assay (MeV; virus pretreatment assay): not affected; infectivity of poliovirus Sb-1 in the presence of peptide (poliovirus Sb-1): not altered; %Helix in DPC ([4]; Table 1): 42%; infectivity of CV-B3 in the presence of peptide (CV-B3): not altered
CCCC[C@H](NC(=O)[C@@H](CC(C)C)NC(=O)[C@H](Cc1ccccc1)NC(=O)[C@H](CCCCN)NC(=O)[C@H](CO)NC(=O)[C@H](Cc1ccccc1)NC(=O)[C@H](Cc1c[nH]c2ccccc12)NC(=O)[C@@H]1CCCN1C(=O)[C@@H](NC(=O)[C@@H](N)Cc1ccccc1)C(C)C)C(=O)N[C@@H](CCCNC(=N)N)C(=O)N[C@H](C(=O)N[C@@H](CC(C)C)C(N)=O)[C@@H](C)CC [TL6, H-Phe-Val-Pro-Trp-Phe-Ser-Lys-Phe-DLeu-Nle-Arg-Ile-Leu-NH2] (H-FVPWFSKF[dL][Nle]RIL-NH2) | minor damage | 2.08 | 13.1 | 2.66 | 9.34 | 34.6 | > 50 | 64.5 | 51 | IC50 (HCoV-OC43): 0.97 µM; IC90 (HCoV-OC43): 10 µM; IC50 (HPIV-3): 32.4 µM; IC90 (HPIV-3): > 50 µM
CCCC[C@H](NC(=O)[C@@H](CC(C)C)NC(=O)[C@H](Cc1ccccc1)NC(=O)[C@H](CCCCN)NC(=O)[C@H](CO)NC(=O)[C@H](Cc1ccccc1)NC(=O)[C@H](Cc1c[nH]c2ccccc12)NC(=O)[C@@H]1CCCN1C(=O)[C@@H](NC(=O)[C@@H](N)Cc1ccccc1)C(C)C)C(=O)N[C@@H](CCCNC(=N)N)C(=O)N[C@H](C(=O)N[C@@H](CC(C)C)C(=O)NCC(=O)NCC(=O)N[C@@H](CSCC(=O)NCCOCCOCCOCCOCCC(=O)O[C@H]1CC[C@@]2(C)C(=CC[C@H]3[C@@H]4CC[C@H]([C@H](C)CCCC(C)C)[C@@]4(C)CC[C@@H]32)C1)C(N)=O)[C@@H](C)CC [TL6.2, H-Phe-Val-Pro-Trp-Phe-Ser-Lys-Phe-DLeu-Nle-Arg-Ile-Leu-Gly-Gly-Cys-[PEG4-Cholesterol]-NH2] (H-FVPWFSKF[dL][Nle]RILGGC(X1)-NH2) | – | – | – | 21.1 | 49.9 | 40.9 | > 50 | > 100 | – | toxicity (Vero cells): about 40%
CCCC[C@H](NC(=O)[C@@H](CC(C)C)NC(=O)[C@H](Cc1ccccc1)NC(=O)[C@H](CCCCN)NC(=O)[C@H](CO)NC(=O)[C@H](Cc1ccccc1)NC(=O)[C@H](Cc1c[nH]c2ccccc12)NC(=O)[C@@H]1CCCN1C(=O)[C@@H](NC(=O)[C@H](Cc1ccccc1)NC(=O)[C@@H](N)CSCC(=O)NCCOCCOCCOCCOCCC(=O)O[C@H]1CC[C@@]2(C)C(=CC[C@H]3[C@@H]4CC[C@H]([C@H](C)CCCC(C)C)[C@@]4(C)CC[C@@H]32)C1)C(C)C)C(=O)N[C@@H](CCCNC(=N)N)C(=O)N[C@H](C(=O)N[C@@H](CC(C)C)C(N)=O)[C@@H](C)CC [TL6.3, H-[Cholesterol-PEG4]-Cys-Phe-Val-Pro-Trp-Phe-Ser-Lys-Phe-DLeu-Nle-Arg-Ile-Leu-NH2] (H-C(X1)FVPWFSKF[dL][Nle]RIL-NH2; N-terminus assumed) | minor damage | – | – | 2.55 | 5.89 | 22.3 | 31.1 | > 100 | – | –
CCCCCCCCCCC(=O)N[C@@H](Cc1ccccc1)C(=O)N[C@H](C(=O)N1CCC[C@H]1C(=O)N[C@@H](Cc1c[nH]c2ccccc12)C(=O)N[C@@H](Cc1ccccc1)C(=O)N[C@@H](CO)C(=O)N[C@@H](CCCCN)C(=O)N[C@@H](Cc1ccccc1)C(=O)N[C@H](CC(C)C)C(=O)N[C@@H](CCCC)C(=O)N[C@@H](CCCNC(=N)N)C(=O)N[C@H](C(=O)N[C@@H](CC(C)C)C(N)=O)[C@@H](C)CC)C(C)C [TL6.5, H-Undecanoic acid-Phe-Val-Pro-Trp-Phe-Ser-Lys-Phe-DLeu-Nle-Arg-Ile-Leu-NH2] (Undecanoyl-FVPWFSKF[dL][Nle]RIL-NH2) | minor damage | – | – | < 0.1 | < 0.1 | 10 | 29.2 | > 100 | – | –
CC[C@H](C)[C@H](NC(=O)[C@H](CCCNC(=N)N)NC(=O)C1(NC(=O)[C@@H](CC(C)C)NC(=O)[C@H](Cc2ccccc2)NC(=O)[C@H](CCCCN)NC(=O)[C@H](CO)NC(=O)[C@H](Cc2ccccc2)NC(=O)[C@H](Cc2c[nH]c3ccccc23)NC(=O)[C@@H]2CCCN2C(=O)[C@@H](NC(=O)[C@@H](N)Cc2ccccc2)C(C)C)Cc2ccccc2C1)C(=O)N[C@@H](CC(C)C)C(N)=O [TL12, H-Phe-Val-Pro-Trp-Phe-Ser-Lys-Phe-DLeu-Aic-Arg-Ile-Leu-NH2] (H-FVPWFSKF[dL][Aic]RIL-NH2) | – | 0.74 | 20.9 | 0.71 | 13.9 | 30.4 | > 50 | 8.28 | 18 | IC50 (HCoV-OC43): 0.62 µM; IC90 (HCoV-OC43): 13.2 µM; IC50 (HPIV-3): 33.8 µM; IC90 (HPIV-3): > 50 µM
H-FVQWFSKFLGRIL-NH2 [TL, H-Phe-Val-Gln-Trp-Phe-Ser-Lys-Phe-Leu-Gly-Arg-Ile-Leu-NH2, reference compound] | minor damage | – | – | – | – | – | – | 19.6 | – | hemolytic activity (human erythrocytes): practically devoid of hemolytic activity; concentration showing residual hemolytic activity (human erythrocytes; red blood cells): ≥ 50 µM
temporin B [TB] | – | – | – | – | – | – | – | – | – | reduction of virus titers (HSV-1): 5 log
